Assay results reported in patent publication US20230159593A1, “CY[…]” (priority 2020, published 2023).
Read-outs that look alike come from different tables or passages of the source.

What was measured:
CypB = target: T1, CypB (Homo sapiens, UniProt P23284); type: cell-based; details: Huh7 cells, 1 μM
T1 construct: endogenous in cells; host or cells: Huh7 cells

HCVcc (J6/JFH1-RLuc) = test: microbe, parasite or virus in culture; type: cell-based, Hepatitis C Virus; details: for IC50: Hepatitis C virus; for Effect on HCVcc infection at single dose: 72 h
IFN-β mRNA = type: cell-based, Homo sapiens; details: HCV-replicating Huh7 cells, 5 μM, 48 h
CypD = target: T2, CypD (Homo sapiens, UniProt P30405); type: cell-based; details: Huh7 cells, 1 μM, 24 hours
T2 construct: endogenous in cells; host or cells: Huh7 cells

HIV-1 (GFP) = test: Infection of U87 cells with HIV-1 (GFP), titration of inhibitors; type: cell-based; details: for IC50: Human immunodeficiency virus 1, U-87 MG; for Potency relative to CsA: U87 cells, HIV-1 (GFP)
Experimental: FIG. 27: As explained in Example 3, this figure illustrates: in panel A, infection of U87 cells with HIV-1 (GFP), with a titration of inhibitors from 10 μm-0.04 μM (n=2±SEM), the vertical axis in each graph representing infectivity as a % of DMSO control; in panel B, Western blot of CypA in Huh7 cells 48 hrs after treatment with and without JW4-10.
Also used as a control in the experiments (see FIG. 27A) was SmBz ([Sarcosine-3(4-methylbenzoate)]-CsA). SmBz is disclosed in Malouitre et al. Biochem J. 2009 Dec. 14; 425(1):137-48. The anti HIV activity of SmBz is described in Rasaiyaah et al. Nature, 2013. 503(7476): p. 402-5.

CypA = target: T3, CypA (Homo sapiens, UniProt P62937); type: cell-based
T3 construct: endogenous in cells; host or cells: Huh7 and Huh7.5 cells

IRF1 target genes = type: cell-based, Homo sapiens; details: HCV-replicating Huh7 cells, 5 μM, 48 hpe
[1] = system: HCV replication organelle (DMVs); type: cell-based, Homo sapiens; details: 5×EC90, 24 hours post-transfection
HCV replication (SGR) = test: microbe, parasite or virus in culture; type: cell-based; details: Hepatitis C virus
[2] = Huh7.5, read-out: IC50 HCVcc infection, Huh7.5
[3] = Huh-7, read-out: IC50 HCVcc infection, Huh7 NT c7
[4] = Huh7.5, Huh7.5, read-out: IC50 Replication (SGR)
[5] = Huh7.5-CTRL, read-out: IC50 Replication (SGR)
[6] = Huh-7, Huh7, read-out: IC50 Replication (SGR)
[7] = Huh-7, Huh7 MAVS KO, read-out: IC50 Replication (SGR)
[8] = Huh-7, Huh7 NT c7, read-out: IC50 Replication (SGR)
[9] = Huh-7, read-out: IC50 Replication (SGR), Huh7 MAVS KO + C508R

T3 sequence (P62937 whole entry): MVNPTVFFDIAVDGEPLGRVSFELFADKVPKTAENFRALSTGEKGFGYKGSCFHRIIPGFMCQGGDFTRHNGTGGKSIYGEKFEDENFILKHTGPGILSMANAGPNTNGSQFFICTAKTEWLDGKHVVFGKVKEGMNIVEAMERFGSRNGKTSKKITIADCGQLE
T1 sequence (P23284 34-216): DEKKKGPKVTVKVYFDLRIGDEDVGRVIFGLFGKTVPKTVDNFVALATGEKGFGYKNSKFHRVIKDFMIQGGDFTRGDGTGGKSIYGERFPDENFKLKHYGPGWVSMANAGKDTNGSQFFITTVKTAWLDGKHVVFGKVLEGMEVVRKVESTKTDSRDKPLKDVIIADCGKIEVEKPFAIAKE
T2 sequence (P30405 30-207): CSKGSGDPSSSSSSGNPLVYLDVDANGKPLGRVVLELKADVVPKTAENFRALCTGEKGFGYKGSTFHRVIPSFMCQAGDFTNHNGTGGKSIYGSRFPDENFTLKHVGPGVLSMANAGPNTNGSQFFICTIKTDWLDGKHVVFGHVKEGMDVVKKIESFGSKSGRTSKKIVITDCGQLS

SMILES: CC[C@@H]1NC(=O)[C@H]([C@H](O)[C@H](C)C/C=C/CCCCC(=O)N[C@H](C(=O)N2C[C@H](O)C[C@H]2C(=O)N[C@@H](C)c2ccc(-c3scnc3C)cc2)C(C)(C)C)N(C)C(=O)[C@H](C(C)C)N(C)C(=O)[C@H](CC(C)C)N(C)C(=O)[C@H](CC(C)C)N(C)C(=O)[C@@H](C)NC(=O)[C@H](C)NC(=O)[C@H](CC(C)C)N(C)C(=O)[C@H](C(C)C)NC(=O)[C@H](CC(C)C)N(C)C(=O)CN(C)C1=O [CsA-Prtc1, [Gly-(1S,2R,E)-10-amido (E3 ligase ligand)-1-hydroxy-2-methyloct-4-ene]^1 CsA]
- CypB protein expression (CypB; 24 hours): minimal impact
- CypB protein expression (CypB; 48 hours): CypB degradation was observed
- IC50 (HCVcc (J6/JFH1-RLuc); [2]): 14 ± 3 nM
- IC50 (HCVcc (J6/JFH1-RLuc); Huh-7, read-out: IC50 HCVcc infection, Huh7): 3 ± 1 nM
- IC50 (HCVcc (J6/JFH1-RLuc); [3]): 12 ± 2 nM
- Effect on HCVcc infection at single dose (HCVcc (J6/JFH1-RLuc); Huh7, 1 μM): completely inhibited HCVcc infection
- Effect on HCVcc infection at single dose (HCVcc (J6/JFH1-RLuc); Huh7.5, 1 μM): completely inhibited HCVcc infection
- Induction of IFN-β expression (IFN-β mRNA): not
- CypD protein expression (CypD): minimal impact
- IC50 (HIV-1 (GFP)): 90 ± 130 nM
- Proteasome dependence of CypA degradation (CypA; 1 μM with or without MG132 (10 μM), 24 hours): proteasome-dependent
- CypA degradation (CypA; Huh7 and Huh7.5 cells, 1 μM, 48 h): degradation of CypA
- CypA degradation (CypA; Huh7 cells, 48 hrs after treatment (FIG. 27B)): degradation of CypA
- Induction of IRF1 target gene expression (IRF1 target genes): did not induce expression of IRF1 target genes
- Number and size of DMVs [1]: significant reduction in the number and size of DMVs
- IC50 (HCV replication (SGR); [4]): 55 ± 7 nM
- IC50 (HCV replication (SGR); [5]): 70 ± 13 nM
- IC50 (HCV replication (SGR); [6]): 16 ± 2 nM
- IC50 (HCV replication (SGR); [7]): 10 ± 1 nM
- IC50 (HCV replication (SGR); [8]): 9 ± 1 nM
- IC50 (HCV replication (SGR); [9]): 8 ± 1 nM

SMILES: CC[C@@H]1NC(=O)[C@H]([C@H](O)[C@H](C)C/C=C/CCOCCOCCOCCN[C@H](C(=O)N2C[C@H](O)C[C@H]2C(=O)N[C@@H](C)c2ccc(-c3scnc3C)cc2)C(C)(C)C)N(C)C(=O)[C@H](C(C)C)N(C)C(=O)[C@H](CC(C)C)N(C)C(=O)[C@H](CC(C)C)N(C)C(=O)[C@@H](C)NC(=O)[C@H](C)NC(=O)[C@H](CC(C)C)N(C)C(=O)[C@H](C(C)C)NC(=O)[C@H](CC(C)C)N(C)C(=O)CN(C)C1=O [JW4-20]
- IC50 (HIV-1 (GFP)): 120 ± 50 nM
- Potency relative to CsA (HIV-1 (GFP)): increased potency

SMILES: CC[C@@H]1NC(=O)[C@H]([C@H](O)[C@H](C)C/C=C/CCCn2ccnc2)N(C)C(=O)[C@H](C(C)C)N(C)C(=O)[C@H](CC(C)C)N(C)C(=O)[C@H](CC(C)C)N(C)C(=O)[C@@H](C)NC(=O)[C@H](C)NC(=O)[C@H](CC(C)C)N(C)C(=O)[C@H](C(C)C)NC(=O)[C@H](CC(C)C)N(C)C(=O)CN(C)C1=O [CsA-like, [Gly-(1S,2R,E)-8-(1H-imidazole-1-yl)-1-hydroxy-2-methyloct-4-ene]^1 CsA]
- IC50 (HCVcc (J6/JFH1-RLuc); [2]): 316 ± 83 nM
- IC50 (HCVcc (J6/JFH1-RLuc); [3]): 123 ± 23 nM
- IC50 (HCVcc (J6/JFH1-RLuc); Huh-7, read-out: IC50 HCVcc infection, Huh7 PKR KO c4): 433 ± 101 nM
- Induction of IFN-β expression (IFN-β mRNA): capable of inducing IFN-β expression
- IC50 (HCV replication (SGR); [4]): 1370 ± 197 nM
- IC50 (HCV replication (SGR); [5]): 527 ± 154 nM
- IC50 (HCV replication (SGR); Huh7.5-Mda5, read-out: IC50 Replication (SGR)): 950 ± 247 nM
- IC50 (HCV replication (SGR); Huh7.5-RIG-I/Mda5, read-out: IC50 Replication (SGR)): 1230 ± 298 nM
- IC50 (HCV replication (SGR); Huh7.5-RIG-I, read-out: IC50 Replication (SGR)): 686 ± 181 nM
- IC50 (HCV replication (SGR); [6]): 266 ± 37 nM
- IC50 (HCV replication (SGR); Huh-7, Huh7 IRF1 KO c10, read-out: IC50 Replication (SGR)): 1220 ± 224 nM
- IC50 (HCV replication (SGR); Huh-7, Huh7 IRF1 KO c11, read-out: IC50 Replication (SGR)): 1590 ± 284 nM
- IC50 (HCV replication (SGR); [7]): 160 ± 23 nM
- IC50 (HCV replication (SGR); [8]): 184 ± 26 nM
- IC50 (HCV replication (SGR); Huh-7, Huh7 PKR KO c1, read-out: IC50 Replication (SGR)): 971 ± 186 nM
- IC50 (HCV replication (SGR); Huh-7, Huh7 PKR KO c4, read-out: IC50 Replication (SGR)): 1250 ± 327 nM
- IC50 (HCV replication (SGR); [9]): 141 ± 28 nM

SMILES: CC[C@@H]1NC(=O)[C@H]([C@H](O)[C@H](C)C/C=C/CCCN2CCN(CC(=O)N[C@H](C(=O)N3C[C@H](O)C[C@H]3C(=O)N[C@@H](C)c3ccc(-c4scnc4C)cc3)C(C)(C)C)CC2)N(C)C(=O)[C@H](C(C)C)N(C)C(=O)[C@H](CC(C)C)N(C)C(=O)[C@H](CC(C)C)N(C)C(=O)[C@@H](C)NC(=O)[C@H](C)NC(=O)[C@H](CC(C)C)N(C)C(=O)[C@H](C(C)C)NC(=O)[C@H](CC(C)C)N(C)C(=O)CN(C)C1=O [JW4-21]
- IC50 (HIV-1 (GFP)): 700 ± 80 nM
- Potency relative to CsA (HIV-1 (GFP)): decreased potency
